In paper PMC7279038, “Antioxidant and Neuroprotective Effects Induced by Cannabidiol and Cannabigerol in Rat CTX-TNA2 Astrocytes and Isolated Cortexes” (International Journal of Molecular Sciences, 2020):

What was measured:
Conditions in all cases: mean ± S.D., n = 3
[1] = DPPH scavenging ability test
Method: For the 1,1-diphenyl-2-picrylhydrazyl (DPPH) radical scavenging assay, sample solution was added to 4 mL of a 0.004% methanol solution of DPPH. The sample absorbance was read at 517 nm after a 30 min incubation at room temperature in the dark. DPPH radical scavenging activity was expressed as IC50 values.

[2] = ABTS scavenging ability test
Method: For the 2,2′-azino-bis(3-ethylbenzothiazoline) 6-sulfonic acid (ABTS) radical scavenging assay, ABTS+ was produced directly by reacting 7 mM ABTS solution with 2.45 mM potassium persulfate and allowing the mixture to stand for […] in the dark at room temperature. Prior to beginning the assay, ABTS solution was diluted with methanol to an absorbance of 0.700 ± 0.02 at 734 nm. Sample solution was added to ABTS solution (2 mL) and mixed. The sample absorbance was read at 734 nm after a 30 min incubation at room temperature. The ABTS radical scavenging activity was expressed as IC50 values.

[3] = Ferric reducing antioxidant power (FRAP)
Method: For the ferric reducing antioxidant power (FRAP) activity assay, sample solution was added to premixed FRAP reagent (2 mL) containing acetate buffer (0.3 M, pH 3.6), 2,4,6-tris(2-pyridyl)-S-triazine (TPTZ) (10 mM) in 40 mM HCl and ferric chloride (20 mM) in a ratio of 10:1:1 (v/v/v). Then, the sample absorbance was read at 593 nm after a 30 min incubation at room temperature. FRAP activity was expressed as IC50 values.

[4] = Cupric reducing antioxidant capacity (CUPRAC)
Method: For the cupric ion reducing activity (CUPRAC) activity assay, sample solution was added to premixed reaction mixture containing CuCl2 (1 mL, 10 mM), neocuproine (1 mL, 7.5 mM) and NH4Ac buffer (1 mL, 1 M, pH 7.0). Similarly, a blank was prepared by adding sample solution (0.5 mL) to premixed reaction mixture […] without CuCl2. Then, the sample and blank absorbances were read at 450 nm after a 30 min incubation at room temperature. The absorbance of the blank was subtracted from that of the sample. CUPRAC activity was expressed as IC50 values.

SMILES: Cc1c(C)c2c(c(C)c1O)CCC(C)(C(=O)O)O2 (stereo not shown) [Trolox]
- IC50 [1]: 210 ± 10 µM
- IC50 [2]: 410 ± 10 µM
- IC50 [3]: 180 ± 10 µM
- IC50 [4]: 500 ± 10 µM
